Data reported in US20190083462A1, “PREVENTION OF NSAID ENTEROPATHY WITH MICROBIOTA-DERIVED TRYPTOPHAN-METABOLITE” (THE TEXAS A&M UNIVERSITY SYSTEM, priority 2016, published 2019).

Tests used:
[1] = test system: CD11b- and GR-1-positive cells (i.e., neutrophils); assay: Flow cytometry of spleen and mesenteric lymph nodes; type: in vivo, mice; settings: after 7 days of treatment
Protocol: Eight- to 10-week-old specific-pathogen-free C57BL/6J mice were purchased and allowed to acclimate for 2 weeks. Mice were fed standardized laboratory rodent diet and sterile water ad libitum. […] Mice were then rehoused on the basis of treatment group assignment, with 5 animals/group-cage. To induce NSAID enteropathy, mice in group 1 were gavaged once daily with indomethacin (5 mg/kg; for 7 days; Sigma Aldrich, St. Louis, Mo.) dissolved in dimethylysulfoxide (DMSO) (Sigma Aldrich, St. Louis, Mo.) and further diluted in phosphate buffered saline (PBS). […] Sigma Aldrich, St. Louis, Mo.) dissolved in sterile water warmed to 55° C. […] All mice were gavaged with equal volumes (200 μL) and equal concentrations of DMSO (0.001%). Feces were collected daily by placing individual animals in sterile plastic cups that were RNase- and DNase-free until they passed feces. The mice were immediately returned to their home cages and the feces immediately flash frozen at -80° C. All animals were euthanized via CO2 asphyxiation on day 8 (i.e., after 7 days of treatment). […] Life Technologies, Carlsbad, Calif.), homogenized, and prepared as a single cell suspension for flow cytometric analysis as previously described (Wang […]. Measuring bacterial load and immune responses in mice infected with Listeria monocytogenes. Journal of Visualized Experiments: JoVE 2011). […]

fecal microbiota = assay: Inferred metagenome of the fecal microbiota (PICRUSt, SIMPER); type: in vivo, mice; settings: for mean % abundance: day 7 feces
Protocol: Eight- to 10-week-old specific-pathogen-free C57BL/6J mice were purchased and allowed to acclimate for 2 weeks. Mice were fed standardized laboratory rodent diet and sterile water ad libitum. […] Mice were then rehoused on the basis of treatment group assignment, with 5 animals/group-cage. To induce NSAID enteropathy, mice in group 1 were gavaged once daily with indomethacin (5 mg/kg; for 7 days; Sigma Aldrich, St. Louis, Mo.) dissolved in dimethylysulfoxide (DMSO) (Sigma Aldrich, St. Louis, Mo.) and further diluted in phosphate buffered saline (PBS). […] Sigma Aldrich, St. Louis, Mo.) dissolved in sterile water warmed to 55° C. […] All mice were gavaged with equal volumes (200 μL) and equal concentrations of DMSO (0.001%). Feces were collected daily by placing individual animals in sterile plastic cups that were RNase- and DNase-free until they passed feces. The mice were immediately returned to their home cages and the feces immediately flash frozen at -80° C. All animals were euthanized via CO2 asphyxiation on day 8 (i.e., after 7 days of treatment). […] Life Technologies, Carlsbad, Calif.), homogenized, and prepared as a single cell suspension for flow cytometric analysis as previously described (Wang […]. Measuring bacterial load and immune responses in mice infected with Listeria monocytogenes. Journal of Visualized Experiments: JoVE 2011). The software Phylogenetic Investigation of Communities by Reconstruction of Unobserved States (PICRUSt) was used to predict the metagenome ([…], Knights […] Thurber R L, Knight R, et al. Predictive functional profiling of microbial communities using 16S rRNA marker gene sequences. Nature Biotechnology 2013; 31:814-21). Sequencing data were prepared as described above, but sequences were then clustered into OTUs using a closed-reference OTU picking protocol at the 97% sequencing identity level [http://qiime.org/scripts/pick_closed_reference_otus.html]. The resulting OTU table was normalized by the expected copy number(s) of the 16s rRNA gene in each OTU. PICRUSt was then used to predict the metagenome [https://picrust.github.io/picrust/tutorials/metagenome_prediction.html#metagenome-prediction-tutorial]. Each sample was rarefied to an even sequencing depth to adjust for uneven sequencing depth prior to further analysis. Differences in the metagenomes among the groups were investigated by visual assessment of clustering on PCA and by analysis of similarity (ANOSIM) calculated on Bray Curtis dissimilarity metric.

[2] = Unclassified, Metabolism, Energy metabolism
[3] = Unclassified, Metabolism, Others

For `COc1ccc2c(c1)c(CC(=O)O)c(C)n2C(=O)c1ccc(Cl)cc1` [NSAID, indomethacin], the “percentage of CD11b- and GR-1-positive cells (neutrophils) in the mesenteric lymph nodes (MLN)” value [1] was “significant increase”, the “percentage of CD11b- and GR-1-positive cells (neutrophils) in the spleen” value [1] was “significant increase” and the “vs. Control Direction” value (fecal microbiota; Alanine, aspartate and glutamate metabolism) was “↓”. The “vs. Control Direction” value (fecal microbiota; Amino Acid related enzymes) was “↑”, the “vs. Control Direction” value (fecal microbiota; Carbohydrate Metabolism, Citrate cycle (TCA cycle)) was “↑” and the “vs. Control Direction” value (fecal microbiota; Cell Motility, Bacterial chemotaxis) was “↑”. The “vs. Control Direction” value (fecal microbiota; Cell Motility, Bacterial motility proteins) was “↑”, the “vs. Control Direction” value (fecal microbiota; Cell Motility, Flagellar assembly) was “↑” and the “vs. Control Direction” value (fecal microbiota; Cellular Processes and Signalling, Sporulation) was “↑”. It also gave a mean % abundance (fecal microbiota; Cellular Processes, Cell Motility, Bacterial chemotaxis) of 1.30%, a mean % abundance (fecal microbiota; Cellular Processes, Cell Motility, Bacterial motility proteins) of 0.81% and a mean % abundance (fecal microbiota; Cellular Processes, Cell Motility, Flagellar assembly) of 0.91%. For the same molecule, the “vs. Control Direction” value (fecal microbiota; Chaperones and folding catalysts) was “↓”, the “vs. Control Direction” value (fecal microbiota; Energy Metabolism, Carbon fixation pathways in prokaryotes) was “↓” and the “vs. Control Direction” value (fecal microbiota; Energy Metabolism, Oxidative phosphorylation) was “↑”. It also gave a mean % abundance (fecal microbiota; Environmental Information Processing, Membrane Transport, ABC transporters) of 1.71%, a mean % abundance (fecal microbiota; Environmental Information Processing, Membrane Transport, Phosphotransferase system (PTS)) of 0.18% and a mean % abundance (fecal microbiota; Environmental Information Processing, Membrane Transport, Transporters) of 3.82%. For the same molecule, the mean % abundance (fecal microbiota; Environmental Information Processing, Signal Transduction, Two-component system) was 0.20%, the “vs. Control Direction” value (fecal microbiota; Folate biosynthesis) was “↑” and the mean % abundance (fecal microbiota; Genetic Information Processing, Folding, Sorting and Degradation, Chaperones and folding catalysts) was 0.61%. It also gave a mean % abundance (fecal microbiota; Genetic Information Processing, Replication and Repair DNA repair and recombination proteins) of 3.12%, a mean % abundance (fecal microbiota; Genetic Information Processing, Replication and Repair, DNA replication proteins) of 0.50% and a mean % abundance (fecal microbiota; Genetic Information Processing, Replication and Repair, Homologous recombination) of 2.12%. For the same molecule, the mean % abundance (fecal microbiota; Genetic Information Processing, Transcription, Transcription factors) was 0.31%, the mean % abundance (fecal microbiota; Genetic Information Processing, Translation Ribosome Biogenesis) was 0.70% and the mean % abundance (fecal microbiota; Genetic Information Processing, Translation, Ribosome) was 2.94%. The “vs. Control Direction” value (fecal microbiota; Lipopolysaccharide biosynthesis) was “↑”, the “vs. Control Direction” value (fecal microbiota; Lipopolysaccharide biosynthesis proteins) was “↑” and the “vs. Control Direction” value (fecal microbiota; Membrane Transport, ABC transporters) was “↓”. For the same molecule, the “vs. Control Direction” value (fecal microbiota; Membrane Transport, Phosphotransferase system (PTS)) was “↓”, the “vs. Control Direction” value (fecal microbiota; Membrane Transport, Transporters) was “↓” and the “vs. Control Direction” value (fecal microbiota; Membrane and intracellular structural molecules) was “↓”. It also gave a mean % abundance (fecal microbiota; Metabolism, Amino Acid Metabolism, Alanine, aspartate and glutamate metabolism) of 1.14%, a mean % abundance (fecal microbiota; Metabolism, Amino Acid Metabolism, Amino Acid related enzymes) of 1.65% and a mean % abundance (fecal microbiota; Metabolism, Carbohydrate Metabolism, Citrate cycle (TCA cycle)) of 1.25%. The mean % abundance (fecal microbiota; Metabolism, Energy Metabolism, Carbon fixation pathways in prokaryotes) was 0.40%, the mean % abundance (fecal microbiota; Metabolism, Energy Metabolism, Oxidative phosphorylation) was 1.65% and the mean % abundance (fecal microbiota; Metabolism, Glycan Biosynthesis and Metabolism, Lipopolysaccharide biosynthesis proteins) was 1.48%. The mean % abundance (fecal microbiota; Metabolism, Glycan Biosynthesis and Metabolism, Lipopolysaccharide biosynthesis) was 1.55%, the mean % abundance (fecal microbiota; Metabolism, Glycan Biosynthesis and Metabolism, Other glycan degradation) was 1.27% and the mean % abundance (fecal microbiota; Metabolism, Metabolism of Cofactors and Vitamins, Folate biosynthesis) was 1.66%. It also gave a mean % abundance (fecal microbiota; Metabolism, Metabolism of Cofactors and Vitamins, One carbon pool by folate) of 0.49%, a mean % abundance (fecal microbiota; Metabolism, Metabolism of Cofactors and Vitamins, Porphyrin and chlorophyll metabolism) of 2.42% and a mean % abundance (fecal microbiota; Metabolism, Nucleotide Metabolism, Purine metabolism) of 0.90%. The mean % abundance (fecal microbiota; Metabolism, Nucleotide Metabolism, Pyrimidine metabolism) was 2.24%, the “vs. Control Direction” value (fecal microbiota; Nucleotide Metabolism, Purine metabolism) was “↓” and the “vs. Control Direction” value (fecal microbiota; Nucleotide Metabolism, Pyrimidine metabolism) was “↑”. The “vs. Control Direction” value (fecal microbiota; One carbon pool by folate) was “↓”, the “vs. Control Direction” value (fecal microbiota; Other glycan degradation) was “↑” and the “vs. Control Direction” value (fecal microbiota; Pores ion channels) was “↑”. For the same molecule, the “vs. Control Direction” value (fecal microbiota; Porphyrin and chlorophyll metabolism) was “↑”, the “vs. Control Direction” value (fecal microbiota; Replication and Repair DNA repair and recombination proteins) was “↑” and the “vs. Control Direction” value (fecal microbiota; Replication and Repair, DNA replication proteins) was “↓”. For the same molecule, the “vs. Control Direction” value (fecal microbiota; Replication and Repair, Homologous recombination) was “↑”, the “vs. Control Direction” value (fecal microbiota; Signal Transduction, Two-component system) was “↓” and the “vs. Control Direction” value (fecal microbiota; Transcription, Transcription factors) was “↓”. The “vs. Control Direction” value (fecal microbiota; Translation Ribosome Biogenesis) was “↓”, the “vs. Control Direction” value (fecal microbiota; Translation, Ribosome) was “↑” and the mean % abundance (fecal microbiota; Unclassified, Cellular Processes and Signaling, Pores ion channels) was 3.54%. For the same molecule, the mean % abundance (fecal microbiota; Unclassified, Cellular Processes and Signalling, Membrane and intracellular structural molecules) was 0.17%, the mean % abundance (fecal microbiota; Unclassified, Cellular Processes and Signalling, Sporulation) was 1.00% and the “vs. Control Direction” value (fecal microbiota; [2]) was “↑”. The mean % abundance (fecal microbiota; [2]) was 1.25%, the “vs. Control Direction” value (fecal microbiota; [3]) was “↑” and the mean % abundance (fecal microbiota; [3]) was 0.84%.
